Laboratory results reported in US11661437B2, “Steroid derivative regulators, method for preparing the same, and uses thereof” (priority 2018, dated 2023).

Experiments:
GABA-A receptor = assay: 35S-TBPS binding assay on rat cerebral cortex cell membrane; set-up: species or system Sprague-Dawley rat; conditions: 2 nM 35S-TBPS, GABA added, read-out: 35S-TBPS bindng test, IC50 on inhibiting the TBPS binding activity
Procedure, shortened: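 Male Sprague-Dawley rat cortical membranes in PBS were preincubated 5 min at 25 °C with compound (8-point 3-fold series […], 1% DMSO), then with GABA ([…]). 2 nM 35S-TBPS was added for 20 h at 4 °C, followed by GF/C filtration and scintillation counting. % inhibition was normalised to DMSO and 10 μM reference controls, with IC50 from a 4-parameter fit.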

ICR mice = assay: In vivo pharmacodynamic test in the forced swimming model in mice; conditions: for Mean (immobility, %) / Mean (immobility, s): 10 mpk p.o.; for Mean (immobility, %): floating time percentage = 100*floating time/240 s; for Mean (immobility, s): latter four minutes of 6 min swim
Description: The antidepressant effect of the compound was evaluated by the forced swimming model in mice.
Male ICR mice (25-35 g) were adapted in the test environment for 3 days before the forced swimming test.
According to the test design, the mice were randomly grouped on the day before the test according to body weight, with 12 mice in each group. Before the test, the compounds of each example were administrated intragastrically according to the Tmax thereof in the brain in mice pharmacokinetic test as follows:
1) Model group (0.5% CMC-Na+1% Tween 80 solution, p.o., 10 mL/kg);
2) Compounds of Example 2, Example 5, Example 7, Example 18, Example 23, Example 26 and Example 50 (10 mg/kg, p.o., 10 mL/kg).
When being administrated, the compounds of each example were suspended in 0.5% CMC-Na-1% Tween 80 solution to the desired concentration.
0.5-1 hour after administration, ICR mice were placed in a forced swimming device (transparent glass drum (water depth 18 cm, water temperature 25-26° C.), one mouse per tank) and forced to swim for 6 minutes. The forced swimming device recorded the floating time of the ICR mice during the entire 6 minutes, and the data of the latter four minutes were used for data analysis. The mice were taken out immediately after the swimming test, wiped dry and put back in their original cages.
Note: The criterion for determining the immobility time is that the mouse stops struggling in water and floats, and there are only slight limb movements to keep the head floating on the water.
3.4 Data Analysis Floating time percentage=100*floating time/240 s.

[1] = Pharmacokinetic assay in Balb/c mice (plasma and brain tissue); assay type: in vivo; conditions: male, Balb/c, mouse, in vivo, po, 5 mg/kg; for AUC(0-t): Area under curve AUC0-t; for AUC(0-inf): Area under curve AUC0-∞; for half-life: Half-life t1/2; for MRT: Mean residence time MRT; for Tmax: Peak time tmax; for Cmax: Plasma concentration Cmax
Description: Balb/c mice were used as test animals. The pharmacokinetic behavior in mice (plasma and brain tissue) of the compounds of Example 2, Example 5, Example 7, Example 12, Example 18, Example 23, Example 26, Example 38, Example 41, Example 50, Example 51 and Example 66 orally administrated at a dose of 5 mg/kg was studied.
Each group had 24 male Balb/c mice. After an overnight fast, Balb/c mice were administrated p.o. with the test compound at an administration dose of 5 mg/kg and an administration volume of 10 mL/kg.
0.2 ml of blood was taken from the heart before administration and at 0, 0.5, 1, 2, 4, 6, 8 and 24 hours after administration. The samples were stored in EDTA-K2 tubes, and centrifuged for 6 minutes at 4° C., 6000 rpm to separate the plasma. The plasma samples were stored at −80° C. The mice were sacrificed with CO2, and the whole brain tissue was taken out, weighed, placed in a 2 mL centrifuge tube and stored at −80° C.
1) 160 μL of acetonitrile was added to 40 μL of the plasma sample for precipitation, and then the mixture was centrifuged for 5-20 minutes at 3500×g.
2) 90 μL of acetonitrile containing the internal standard (100 ng/mL) was added to 30 μL of the plasma and brain homogenate samples for precipitation, and then the mixture was centrifuged for 8 minutes at 13000 rpm.
3) 70 μL of the treated supernatant was taken and added to 70 μL of water, and mixed by vortex for 10 minutes. 20 μL of the mixture was taken to analyze the concentration of the test compound by LC/MS/MS. LC/MS/MS analysis instrument: AB Sciex API 4000 Qtrap.
2.6 Liquid Chromatography Analysis • Liquid chromatography condition: Shimadzu LC-20AD pump. • Chromatographic column: Agilent ZORBAX XDB-C18 (50×2.1 mm, 3.5 μm); Mobile phase: Eluent A was 0.1% formic acid in water, and Eluent B was acetonitrile. • Flow rate: 0.4 mL/min • Elution time: 0-4.0 minutes the eluent is as follows:
The main parameters of pharmacokinetics were calculated by WinNonlin 6.1.

Row | SMILES | IC50 (GABA-A receptor) [nM] | Mean (immobility, %) (ICR mice) [%] | Mean (immobility, s) (ICR mice) [s] | Area under curve AUC0-t [1] [ng·h/mL] | Area under curve AUC0-∞ [1] [ng·h/mL] | Half-life t1/2 [1] [h] | Mean residence time MRT [1] [h] | Plasma concentration Cmax [1] [ng/mL] | AUC(0-t) [1] [ng·h/mL] | AUC(0-inf) [1] [ng·h/mL] | half-life [1] [h] | MRT [1] [h] | Tmax [1] [h] | Cmax [1] [ng/mL] | immobility time during the latter four minutes compared with that of the model group (ICR mice; 10 mg/kg p.o.)
1 | C[C@@]1(O)CC[C@@]2(F)[C@H](CC[C@H]3[C@@H]4CC[C@H](C(=O)Cn5cc(C(F)(F)F)cn5)[C@@]4(C)CC[C@@H]32)C1 [Example 7, 1-((3R,5R,8S,9S,10R,13S,14S,17S)-10-Fluoro-3-hydroxy-3,13-dimethylhexadecahydro-1H-cyclopenta[a]phenanthren-17-yl)-2-(4-(trifluoromethyl)-1H-pyrazol-1-yl)ethan-1-one] | 12.4 | 58.99 | 141.58 | 5106.0 | 5514.3 | 1.89 | 3.37 | 1263.3 | 3780 | 3780 | 1.73 | 3.67 | 1 | 888 | –
2 | C[C@@]1(O)CC[C@@]2(F)[C@H](CC[C@H]3[C@@H]4CC[C@H](C(=O)Cn5nc6ccc(F)cc6n5)[C@@]4(C)CC[C@@H]32)C1 [Example 18, 2-(5-Fluoro-2H-benzo[d][1,2,3]triazol-2-yl)-1-((3R,5R,8S,9S,10R,13S,14S,17S)-10-fluoro-3-hydroxy-3,13-dimethylhexadecahydro-1H-cyclopenta[a]phenanthren-17-yl)ethan-1-one] | 10 | 61.19 | 146.86 | 2141.1 | 2186.8 | 4.7 | 6.1 | 281.7 | 1520 | 1540 | 4.2 | 5.5 | 1 | 236 | –
3 | C[C@@]1(O)CC[C@]2(F)C3CC[C@]4(C)[C@@H](C(=O)CNc5ccc(F)cc5F)CC[C@H]4[C@@H]3CC[C@@H]2C1 (stereo partly drawn) [Example 26, 2-((2,4-Difluorophenyl)amino)-1-((3R,5R,8S,10R,13S,14S,17S)-10-fluoro-3-hydroxy-3,13-dimethylhexadecahydro-1H-cyclopenta[a]phenanthren-17-yl)ethan-1-one] | 10.5 | 53.46 | 128.30 | 722.9 | 828.4 | 2.06 | 3.84 | 172.3 | 767 | 772 | 2.57 | 4.08 | 0.5 | 232 | –
4 | C[C@@]1(O)CC[C@@]2(F)[C@H](CC[C@H]3[C@@H]4CC[C@H](C(=O)Cn5nc(C#N)cc5C#N)[C@@]4(C)CC[C@@H]32)C1 [Example 50, 1-(2-((3R,5R,8S,9S,10R,13S,14S,17S)-10-Fluoro-3-hydroxy-3,13-dimethylhexadecahydro-1H-cyclopenta[a]phenanthren-17-yl)-2-oxoethyl)-1H-pyrazole-3,5-dicarbonitrile] | 12.5 | 42.11 | 101.07 | – | – | 1.10 | 2.48 | – | – | – | 1.11 | 2.36 | 1 | – | very significantly different
